Data: patent publication US20010036941A1, “Use of 7-(1-aminomethyl-2-oxa-7-aza-bicyclo[3.3.0]oct-7-yl)-quinolonecarboxylic acid and -naphthyridonecarboxylic acid derivatives for the therapy of Helicobacter pylori infections and associated gastroduodenal disorders” (priority 1996, published 2001)
Values after ≈ are worked out from the molar mass of the structure shown. Structures can show the parent of a compound that is named as a salt.

How the values were obtained:
[1] = tested on: H. felis strain (ATCC 49179); experiment: H. felis mouse model (clearance / eradication, urease test); format: in vivo, mice; conditions: for Clearance %: 3-day treatment of infected mice, 2 × 10 mg/kg, 6 animals per group; for Eradication of H. felis in the mouse model: animal model (H. felis, mouse), monotherapeutic treatment
Description: The bacteria were administered as a suspension (0.1 ml with 10^8-10^9 bacteria) 4 times within 7 days using a pharyngeal tube. Alternatively, stomach homogenates of mice which had been infected earlier were also used for infection.
In some cases, pathogen eradication 24 weeks after the end of the treatment was also determined. In accordance with the “CLO” test used in clinical diagnostics, a microtitre-based urease test was used. Defined stomach biopsy specimens were tested for change of colour within a period of 24 hours.

[2] = tested on: H. pylori clinic isolate 008; experiment: MIC, agar dilution test, H. pylori clinic isolate 008; format: cell-based; conditions: lowest concentration with no visible growth; for MIC: Helicobacter pylori
Description: (§1) For inoculation, fresh Helicobacter cultures from liquid culture or suspension of the pathogens from agar plates were used. The inoculated agar plates were incubated at 37° C. in an atmosphere containing 5-10% of CO2 for 48-72 hours.

H. pylori NCTC 11637 = experiment: MIC, agar dilution test, H. pylori NCTC 11637; format: cell-based; conditions: for MIC: Helicobacter pylori, NCTC11637, lowest concentration with no visible growth
Description: as §1

H. pylori = conditions: cited from earlier work

melting point | Structure (SMILES) | also measured
109 to 111 °C | COC(=O)c1cn(C2CC2)c2c(F)c(N3CC4CCOC4(CN)C3)c(F)cc2c1=O.Cl (stereo not drawn) | –
118 to 119 °C (dec.) | C=CCOC(=O)c1cn(C2CC2)c2c(F)c(N3CC4CCOC4(CN)C3)c(F)cc2c1=O.O=C(O)C(F)(F)F (stereo not drawn) | –
119 to 120 °C (dec.) | NCC12CN(c3c(F)cc4c(=O)c(C(=O)OCc5ccccc5)cn(C5CC5)c4c3F)CC1CCO2.O=C(O)C(F)(F)F (stereo not drawn) | –
197 to 198 °C (dec.) | CC(C)(CF)n1cc(C(=O)O)c(=O)c2cc(F)c(N3CC4CCOC4(CN)C3)cc21.O=C(O)C(F)(F)F (stereo not drawn) | –
225 °C (dec.) | Cl.NCC12CN(c3cc4c(c(O)c3F)c(=O)c(C(=O)O)cn4C3CC3)CC1CCO2 (stereo not drawn) | –
207 °C (dec.) | Cl.NCC12CN(c3nc4c(cc3F)c(=O)c(C(=O)O)cn4-c3cnsn3)CC1CCO2 (stereo not drawn) | –
215 °C (dec.) | NCC12CN(c3cc4c(cc3F)c(=O)c3c(=O)[nH]sc3n4C3CC3)CC1CCO2.O=C(O)C(F)(F)F (stereo not drawn) | –
233 °C | CN1COc2c(N3CC4CCOC4(CN)C3)c(F)cc3c(=O)c(C(=O)O)cn1c23.Cl (stereo not drawn) | –
242 to 244 °C (dec.) | COc1c(N2CC3CCOC3(CN)C2)c(F)c(N)c2c(=O)c(C(=O)O)cn(C3CC3)c12.Cl (stereo not drawn) | –
191 to 193 °C (dec.) | C[C@H]1COc2c(N3CC4CCOC4(CN)C3)c(F)cc3c(=O)c(C(=O)O)cn1c23.Cl (stereo partly drawn) | –
251 to 253 °C (dec.) | Cc1c(F)c(N2CC3CCOC3(CN)C2)cc2c1c(=O)c(C(=O)O)cn2C1CC1.Cl (stereo not drawn) | –
177 to 179 °C (dec.) | CNn1cc(C(=O)O)c(=O)c2cc(F)c(N3CC4CCOC4(CN)C3)c(F)c21.Cl (stereo not drawn) | –
215 to 216 °C (dec.) | COc1c(N2CC3CCOC3(CN)C2)c(F)cc2c(=O)c(C(=O)O)cn(C3CC3)c12.O=C(O)C(F)(F)F (stereo not drawn) | –
125 to 128 °C (dec.) | Cc1nc(N2CC3CCOC3(CN)C2)c(Cl)c2c1c(=O)c(C(=O)O)cn2C1CC1.O=C(O)C(F)(F)F (stereo not drawn) | –
199 to 200 °C (dec.) | CCOC(=O)c1cn(C2CC2)c2c(F)c(N3CC4CCOC4(CN)C3)ncc2c1=O.O=C(O)C(F)(F)F (stereo not drawn) | –
139 to 141 °C | CCOC(=O)c1cn(C2CC2)c2c(F)c(N3CC4CCOC4(CN)C3)c(F)cc2c1=O.O=C(O)C(F)(F)F (stereo not drawn) | –
301 to 304 °C (dec.) | NCC12CN(c3ncc4c(=O)c(C(=O)O)cn(C5CC5)c4c3F)CC1CCO2 (stereo not drawn) (as salt: hydrochloride) | –

melting point | Structure (SMILES) | also measured
– | Cl.NCC12CN(c3c(F)cc4c(=O)c(C(=O)O)cn(C5CC5)c4c3F)CC1CCO2 (racemic) [Substance A, rac. 7-(1-aminomethyl-2-oxa-7-aza-bicyclo[3.3.0]oct-7-yl)-1-cyclopropyl-6,8-difluoro-1,4-dihydro-4-oxo-3-quinolinecarboxylic acid hydrochloride] | Clearance % [1]: 67%; Eradication of the pathogen ([1]; 14-day treatment of the mice with 3×10 mg/kg): total eradication
– | Cl.N#Cc1c(N2CC3CCOC3(CN)C2)c(F)cc2c(=O)c(C(=O)O)cn(C3CC3)c12 (single isomer, unassigned; (+)) [Example 5 C, (+)-7-(1-aminomethyl-2-oxa-7-aza-bicyclo[3.3.0]oct-7-yl)-8-cyano-1-cyclopropyl-6-fluoro-1,4-dihydro-4-oxo-3-quinolinecarboxylic acid hydrochloride] | Clearance % [1]: 100%
– | O=C(O)c1cn(C2CC2)c2c(Cl)c(N3C[C@@H]4CCCN[C@@H]4C3)c(F)cc2c1=O [BAY Y 3118, 8-chloro-1-cyclopropyl-7-([S,S]-2,8-diazabicyclo[4.3.0]non-8-yl)-6-fluoro-1,4-dihydro-4-oxo-3-quinolinecarboxylic acid, reference compound] | Eradication of H. felis in the mouse model [1]: not possible to achieve eradication
209 to 211 °C (dec.) | COc1c(N2CC3CCOC3(CN)C2)c(F)c(N)c2c(=O)c(C(=O)O)cn(C3CC3)c12 (stereo not drawn) [Example 2 C, 5-amino-7-(1-aminomethyl-2-oxa-7-aza-bicyclo[3.3.0]oct-7-yl)-1-cyclopropyl-6-fluoro-1,4-dihydro-8-methoxy-4-oxo-3-quinolinecarboxylic acid] | –
117 to 119 °C (dec.) | CCCCOC(=O)c1cn(C2CC2)c2c(F)c(N3CC4CCOC4(CN)C3)c(F)cc2c1=O (stereo not drawn) [Example 11 B, 1-Butyl 7-(1-aminomethyl-2-oxa-7-aza-bicyclo[3.3.0]oct-7-yl)-1-cyclopropyl-6,8-difluoro-1,4-dihydro-4-oxo-3-quinolinecarboxylate] | –
133 to 135 °C (dec.) | C=CCOC(=O)c1cn(C2CC2)c2c(F)c(N3CC4CCOC4(CN)C3)c(F)cc2c1=O (stereo not drawn) [Example 12 B, Allyl 7-(1-aminomethyl-2-oxa-7-aza-bicyclo[3.3.0]oct-7-yl)-1-cyclopropyl-6,8-difluoro-1,4-dihydro-4-oxo-3-quinolinecarboxylate] | –
127 to 129 °C (dec.) | C#CCOC(=O)c1cn(C2CC2)c2c(F)c(N3CC4CCOC4(CN)C3)c(F)cc2c1=O (stereo not drawn) [Example 13 B, Propargyl 7-(1-aminomethyl-2-oxa-7-aza-bicyclo[3.3.0]oct-7-yl)-1-cyclopropyl-6,8-difluoro-1,4-dihydro-4-oxo-3-quinolinecarboxylate] | –
118 to 119 °C (dec.) | NCC12CN(c3c(F)cc4c(=O)c(C(=O)OCc5ccccc5)cn(C5CC5)c4c3F)CC1CCO2 (stereo not drawn) [Example 14 B, Benzyl 7-(1-aminomethyl-2-oxa-7-aza-bicyclo[3.3.0]oct-7-yl)-1-cyclopropyl-6,8-difluoro-1,4-dihydro-4-oxo-3-quinolinecarboxylate] | –
144 to 146 °C (dec.) | CCOC(=O)COC(=O)c1cn(C2CC2)c2c(F)c(N3CC4CCOC4(CN)C3)c(F)cc2c1=O (stereo not drawn) [Example 15 B, Ethoxycarbonylmethyl 7-(1-aminomethyl-2-oxa-7-aza-bicyclo[3.3.0]oct-7-yl)-1-cyclopropyl-6,8-difluoro-1,4-dihydro-4-oxo-3-quinolinecarboxylate] | –
217 to 218 °C (dec.) | CC(C)(C)n1cc(C(=O)O)c(=O)c2cc(F)c(N3CC4CCOC4(CN)C3)cc21 (stereo not drawn) [Example 17 B, 7-(1-aminomethyl-2-oxa-7-aza-bicyclo[3.3.0]oct-7-yl)-1-tert-butyl-6-fluoro-1,4-dihydro-4-oxo-3-quinolinecarboxylic acid] | –
185 to 187 °C (dec.) | NC(=O)NCC12CN(c3c(F)cc4c(=O)c(C(=O)O)cn(C5CC5)c4c3F)CC1CCO2 (stereo not drawn) [Example 27, 1-cyclopropyl-6,8-difluoro-1,4-dihydro-4-oxo-7-(1-ureidomethyl-2-oxa-7-aza-bicyclo[3.3.0]oct-7-yl)-3-quinolinecarboxylic acid] | MIC [2]: ≤ 0.015 µg/mL; MIC (H. pylori NCTC 11637): 0.5 µg/mL (≈ 1.12 µM)
– | NC(=O)NCC12CN(c3c(F)cc4c(=O)c(C(=O)O)cn(C5CC5)c4c3OC(F)F)CC1CCO2 (stereo not drawn) [Example 29, 1-cyclopropyl-8-difluoromethoxy-6-fluoro-1,4-dihydro-4-oxo-7-(1-ureidomethyl-2-oxa-7-aza-bicyclo[3.3.0]oct-7-yl)-3-quinolinecarboxylic acid] | MIC [2]: 8 µg/mL (≈ 16.1 µM); MIC (H. pylori NCTC 11637): 8 µg/mL (≈ 16.1 µM)
– | NC(=O)NCC12CN(c3c(F)cc4c(=O)c(C(=O)O)cn([C@@H]5C[C@@H]5F)c4c3Cl)CC1CCO2 (stereo partly drawn) [Example 30, 8-chloro-6-fluoro-1-[(1R,2S)-2-fluoro-cyclopropyl]-1,4-dihydro-4-oxo-7-(1-ureidomethyl-2-oxa-7-aza-bicyclo[3.3.0]oct-7-yl)-3-quinolinecarboxylic acid] | MIC [2]: 0.25 µg/mL (≈ 0.518 µM); MIC (H. pylori NCTC 11637): 0.125 µg/mL (≈ 0.259 µM)
208 to 209 °C (dec.) | O=CNCC12CN(c3c(F)cc4c(=O)c(C(=O)O)cn(C5CC5)c4c3F)CC1CCO2 (stereo not drawn) [Example 31, 1-cyclopropyl-6,8-difluoro-7-(1-formylaminomethyl-2-oxa-7-aza-bicyclo[3.3.0]oct-7-yl)-1,4-dihydro-4-oxo-3-quinolinecarboxylic acid] | MIC [2]: < 0.5 µg/mL; MIC (H. pylori NCTC 11637): 0.5 µg/mL (≈ 1.15 µM)
– | C=Cc1c(F)c(N2CC3CCOC3(CN)C2)c(F)c2c1c(=O)c(C(=O)O)cn2C1CC1.Cl (stereo not drawn) [Ref.*^), 7-(1-aminomethyl-2-oxa-7-aza-bicyclo[3.3.0]oct-7-yl)-1-cyclopropyl-6,8-difluror-1,4-dihydro-4-oxo-5-vinyl-3-quinolinecarboxylic acid hydrochloride] | Activity against H. pylori (H. pylori): relatively low
– | C=Cc1c(F)c(N2CC3CCOC3(CN)C2)c(F)c2c1c(=O)c(C(=O)O)cn2C1CC1.Cl (stereo not drawn) [Ref.*^)] | MIC H. pylori 008 [2]: 0.25 µg/mL; MIC H. pylori 11637 (H. pylori NCTC 11637; lowest concentration with no visible growth): 0.25 µg/mL
– | CCn1cc(C(=O)O)c(=O)c2cc(F)c(N3CCNC(C)C3)c(F)c21 (stereo not drawn) [lomefloxacin, reference compound] | Eradication of H. felis in the mouse model [1]: not capable of eradicating the germ
